Where a name gives a salt, the structure may show the parent alone. Read-outs that look alike come from different tables or passages of the source.
What was measured:
[1] = ref FDA label, cited from earlier work
cardiac microtissues [2] = test: ATP depletion (CellTiter Glo Luminescent Cell Viability Assay) in cardiac microtissues; format: cell-based, human; conditions: the concentration is the IC30 of ATP depletion, or cell death caused
Procedure: Cellular ATP concentrations were also assessed using the CellTiter Glo® Luminescent Cell Viability Assay as per the manufacturer’s instructions (Promega).

cardiac microtissues [3] = test: Targeted qRT-PCR of ATAD3C, CDH13, IL6, PTX3, SLC7A5, UCHL1 in cardiac microtissues; format: cell-based, human; conditions: Sorafenib 3.74 µM, Sunitinib 3.53 µM, Dasatinib 10.8 µM; for activity at 3.74 µM: Homo sapiens, read-out: % of control
Procedure: The experiment was performed with three technical replicates across 1-2 independent replicates.

cardiac microtissues [4] = test: Ingenuity Pathway Analysis over-representation of differentially expressed genes (activation Z-score); format: cell-based, human; conditions: 48hr high; Group 2
cardiac microtissues [5] = test: Transcriptomic profiling (mRNA-seq) and DESeq2 differential gene expression analysis in cardiac microtissues; conditions: absolute log2(Fold-Change) > 1, FDR p ≤ 0.05
hiPS-CMs = test system: hiPS-CMs; set-up: method as in Harmer et al., 2012; conditions: 10 µM; ref Harmer et al., 2012; cited from earlier work

For CNC(=O)c1cc(Oc2ccc(NC(=O)Nc3ccc(Cl)c(C(F)(F)F)c3)cc2)ccn1 [Sorafenib Tosylate], the “Structural cardiotoxin?” value ([1]; FDA label references heart failure or a decrease in left ventricular ejection fraction) is listed as “Y”, the “Functional cardiotoxin?” value ([1]; compound annotation) is listed as “Y” and the “Transcriptomic high concentration (µM) = IC30 of ATP depletion” value (cardiac microtissues [2]) is listed as 3.74 µM. It also gave an activity at 3.74 µM (cardiac microtissues [3]; gene ATAD3C, Run 1) of 85.7%, an activity at 3.74 µM (cardiac microtissues [3]; gene CDH13, Run 1) of 74% and an activity at 3.74 µM (cardiac microtissues [3]; gene CDH13, Run 2) of 113%. The activity at 3.74 µM (cardiac microtissues [3]; gene IL6, Run 1) was 35.3%, the activity at 3.74 µM (cardiac microtissues [3]; gene IL6, Run 2) was 6.7% and the activity at 3.74 µM (cardiac microtissues [3]; gene PTX3, Run 1) was 73.7%. The activity at 3.74 µM (cardiac microtissues [3]; gene PTX3, Run 2) was 74%, the activity at 3.74 µM (cardiac microtissues [3]; gene SLC7A5, Run 1) was 57% and the activity at 3.74 µM (cardiac microtissues [3]; gene SLC7A5, Run 2) was 50.2%. The activity at 3.74 µM (cardiac microtissues [3]; gene UCHL1, Run 1) was 66.2%, the activity at 3.74 µM (cardiac microtissues [3]; gene UCHL1, Run 2) was 70.9% and the “2^-ΔΔCt of Individual reps, Treated 1” value (cardiac microtissues [3]; gene ATAD3C, Run 1) was 0.8342. For the same compound, the “2^-ΔΔCt of Individual reps, Treated 2” value (cardiac microtissues [3]; gene ATAD3C, Run 1) was 0.8632, the “2^-ΔΔCt of Individual reps, Treated 3” value (cardiac microtissues [3]; gene ATAD3C, Run 1) was 0.8757 and the “Average 2^-ΔΔCt, Treated” value (cardiac microtissues [3]; gene ATAD3C, Run 1) was 0.8577. The “2^-ΔΔCt of Individual reps, Treated 1” value (cardiac microtissues [3]; gene CDH13, Run 1) was 0.6992, the “2^-ΔΔCt of Individual reps, Treated 2” value (cardiac microtissues [3]; gene CDH13, Run 1) was 0.7927 and the “2^-ΔΔCt of Individual reps, Treated 3” value (cardiac microtissues [3]; gene CDH13, Run 1) was 0.7507. The “Average 2^-ΔΔCt, Treated” value (cardiac microtissues [3]; gene CDH13, Run 1) was 0.7476, the “2^-ΔΔCt of Individual reps, Treated 1” value (cardiac microtissues [3]; gene CDH13, Run 2) was 1.515 and the “2^-ΔΔCt of Individual reps, Treated 2” value (cardiac microtissues [3]; gene CDH13, Run 2) was 1.105. The “2^-ΔΔCt of Individual reps, Treated 3” value (cardiac microtissues [3]; gene CDH13, Run 2) was 0.7867, the “Average 2^-ΔΔCt, Treated” value (cardiac microtissues [3]; gene CDH13, Run 2) was 1.136 and the “2^-ΔΔCt of Individual reps, Treated 1” value (cardiac microtissues [3]; gene IL6, Run 1) was 0.3353. For the same compound, the “2^-ΔΔCt of Individual reps, Treated 2” value (cardiac microtissues [3]; gene IL6, Run 1) was 0.4238, the “2^-ΔΔCt of Individual reps, Treated 3” value (cardiac microtissues [3]; gene IL6, Run 1) was 0.3063 and the “Average 2^-ΔΔCt, Treated” value (cardiac microtissues [3]; gene IL6, Run 1) was 0.3551. For the same compound, the “2^-ΔΔCt of Individual reps, Treated 1” value (cardiac microtissues [3]; gene IL6, Run 2) was 0.169, the “2^-ΔΔCt of Individual reps, Treated 2” value (cardiac microtissues [3]; gene IL6, Run 2) was 0.0204 and the “2^-ΔΔCt of Individual reps, Treated 3” value (cardiac microtissues [3]; gene IL6, Run 2) was 0.0311. The “Average 2^-ΔΔCt, Treated” value (cardiac microtissues [3]; gene IL6, Run 2) was 0.07349, the “2^-ΔΔCt of Individual reps, Treated 1” value (cardiac microtissues [3]; gene PTX3, Run 1) was 0.6982 and the “2^-ΔΔCt of Individual reps, Treated 2” value (cardiac microtissues [3]; gene PTX3, Run 1) was 0.8787. The “2^-ΔΔCt of Individual reps, Treated 3” value (cardiac microtissues [3]; gene PTX3, Run 1) was 0.6669, the “Average 2^-ΔΔCt, Treated” value (cardiac microtissues [3]; gene PTX3, Run 1) was 0.7479 and the “2^-ΔΔCt of Individual reps, Treated 1” value (cardiac microtissues [3]; gene PTX3, Run 2) was 0.9568. The “2^-ΔΔCt of Individual reps, Treated 2” value (cardiac microtissues [3]; gene PTX3, Run 2) was 0.4098, the “2^-ΔΔCt of Individual reps, Treated 3” value (cardiac microtissues [3]; gene PTX3, Run 2) was 0.8963 and the “Average 2^-ΔΔCt, Treated” value (cardiac microtissues [3]; gene PTX3, Run 2) was 0.7543. For the same compound, the “2^-ΔΔCt of Individual reps, Treated 1” value (cardiac microtissues [3]; gene SLC7A5, Run 1) was 0.5608, the “2^-ΔΔCt of Individual reps, Treated 2” value (cardiac microtissues [3]; gene SLC7A5, Run 1) was 0.6339 and the “2^-ΔΔCt of Individual reps, Treated 3” value (cardiac microtissues [3]; gene SLC7A5, Run 1) was 0.5348. The “Average 2^-ΔΔCt, Treated” value (cardiac microtissues [3]; gene SLC7A5, Run 1) was 0.5765, the “2^-ΔΔCt of Individual reps, Treated 1” value (cardiac microtissues [3]; gene SLC7A5, Run 2) was 0.6489 and the “2^-ΔΔCt of Individual reps, Treated 2” value (cardiac microtissues [3]; gene SLC7A5, Run 2) was 0.4574. The “2^-ΔΔCt of Individual reps, Treated 3” value (cardiac microtissues [3]; gene SLC7A5, Run 2) was 0.4262, the “Average 2^-ΔΔCt, Treated” value (cardiac microtissues [3]; gene SLC7A5, Run 2) was 0.5108 and the “2^-ΔΔCt of Individual reps, Treated 1” value (cardiac microtissues [3]; gene UCHL1, Run 1) was 0.6452. The “2^-ΔΔCt of Individual reps, Treated 2” value (cardiac microtissues [3]; gene UCHL1, Run 1) was 0.6787, the “2^-ΔΔCt of Individual reps, Treated 3” value (cardiac microtissues [3]; gene UCHL1, Run 1) was 0.6738 and the “Average 2^-ΔΔCt, Treated” value (cardiac microtissues [3]; gene UCHL1, Run 1) was 0.6659. For the same compound, the “2^-ΔΔCt of Individual reps, Treated 1” value (cardiac microtissues [3]; gene UCHL1, Run 2) was 0.8432, the “2^-ΔΔCt of Individual reps, Treated 2” value (cardiac microtissues [3]; gene UCHL1, Run 2) was 0.6978 and the “2^-ΔΔCt of Individual reps, Treated 3” value (cardiac microtissues [3]; gene UCHL1, Run 2) was 0.5876. For the same compound, the “Average 2^-ΔΔCt, Treated” value (cardiac microtissues [3]; gene UCHL1, Run 2) was 0.7095, the “activation Z-score: Acute Phase Response Signaling” value (cardiac microtissues [4]) was -1.414 and the “activation Z-score: Adrenomedullin signaling pathway” value (cardiac microtissues [4]) was 0.447. For the same compound, the “activation Z-score: Aryl Hydrocarbon Receptor Signaling” value (cardiac microtissues [4]) was -1.342, the “activation Z-score: Breast Cancer Regulation by Stathmin1” value (cardiac microtissues [4]) was -2.111 and the “activation Z-score: Cardiac Hypertrophy Signaling (Enhanced)” value (cardiac microtissues [4]) was -1.387. The “activation Z-score: Cell Cycle: G2/M DNA Damage Checkpoint Regulation” value (cardiac microtissues [4]) was -2.236, the “activation Z-score: Colorectal Cancer Metastasis Signaling” value (cardiac microtissues [4]) was -1.633 and the “activation Z-score: Cyclins and Cell Cycle Regulation” value (cardiac microtissues [4]) was 1.342. The “activation Z-score: Endothelin-1 Signaling” value (cardiac microtissues [4]) was -2, the “activation Z-score: G-Protein Coupled Receptor Signaling” value (cardiac microtissues [4]) was -1.897 and the “activation Z-score: HIF1Î± Signaling” value (cardiac microtissues [4]) was -0.447. For the same compound, the “activation Z-score: HMGB1 Signaling” value (cardiac microtissues [4]) was -1.897, the “activation Z-score: Hepatic Fibrosis Signaling Pathway” value (cardiac microtissues [4]) was -2.111 and the “activation Z-score: IL-6 Signaling” value (cardiac microtissues [4]) was -1.667. The “activation Z-score: IL-8 Signaling” value (cardiac microtissues [4]) was -2, the “activation Z-score: ILK Signaling” value (cardiac microtissues [4]) was -1 and the “activation Z-score: Immunogenic Cell Death Signaling Pathway” value (cardiac microtissues [4]) was -1. For the same compound, the “activation Z-score: Kinetochore Metaphase Signaling Pathway” value (cardiac microtissues [4]) was 1.886, the “activation Z-score: LXR/RXR Activation” value (cardiac microtissues [4]) was 2.333 and the “activation Z-score: Leukocyte Extravasation Signaling” value (cardiac microtissues [4]) was -2. The “activation Z-score: MIF Regulation of Innate Immunity” value (cardiac microtissues [4]) was -2, the “activation Z-score: Macrophage Alternative Activation Signaling Pathway” value (cardiac microtissues [4]) was 2.236 and the “activation Z-score: Osteoarthritis Pathway” value (cardiac microtissues [4]) was -2.714. The “activation Z-score: Oxytocin Signaling Pathway” value (cardiac microtissues [4]) was -2.236, the “activation Z-score: PPAR Signaling” value (cardiac microtissues [4]) was 2.236 and the “activation Z-score: Pulmonary Fibrosis Idiopathic Signaling Pathway” value (cardiac microtissues [4]) was -1.897. The “activation Z-score: Pulmonary Healing Signaling Pathway” value (cardiac microtissues [4]) was -0.447, the “activation Z-score: Pyridoxal 5'-phosphate Salvage Pathway” value (cardiac microtissues [4]) was 2.236 and the “activation Z-score: Regulation Of The Epithelial Mesenchymal Transition By Growth Factors Pathway” value (cardiac microtissues [4]) was -1.89. The “activation Z-score: Ribonucleotide Reductase Signaling Pathway” value (cardiac microtissues [4]) was -0.816, the “activation Z-score: Role of IL-17F in Allergic Inflammatory Airway Diseases” value (cardiac microtissues [4]) was -2 and the “activation Z-score: Role of JAK family kinases in IL-6-type Cytokine Signaling” value (cardiac microtissues [4]) was -1.414. For the same compound, the “activation Z-score: Salvage Pathways of Pyrimidine Ribonucleotides” value (cardiac microtissues [4]) was 2.236, the “activation Z-score: Senescence Pathway” value (cardiac microtissues [4]) was -1.89 and the “activation Z-score: Signaling by Rho Family GTPases” value (cardiac microtissues [4]) was -0.447. The “activation Z-score: TREM1 Signaling” value (cardiac microtissues [4]) was -2, the “activation Z-score: White Adipose Tissue Browning Pathway” value (cardiac microtissues [4]) was 0 and the “activation Z-score: Wound Healing Signaling Pathway” value (cardiac microtissues [4]) was -2.714. The “number of significant differentially expressed genes, 6hr high” value (cardiac microtissues [5]; 6 hr, high concentration) was 13, the “number of significant differentially expressed genes, 6hr low” value (cardiac microtissues [5]; 6 hr, low concentration) was 7 and the “number of significant differentially expressed genes, 48hr high” value (cardiac microtissues [5]; 48 hr, high concentration) was 268. For the same compound, the “number of significant differentially expressed genes, 48hr low” value (cardiac microtissues [5]; 48 hr, low concentration) was 150, the “number of significant differentially expressed genes, 72hr high” value (cardiac microtissues [5]; 72 hr, high concentration) was 204 and the “number of significant differentially expressed genes, 72hr low” value (cardiac microtissues [5]; 72 hr, low concentration) was 143.
In the case of COc1ccc(CCN(C)CCCC(C#N)(c2ccc(OC)c(OC)c2)C(C)C)cc1OC (stereo not shown) [verapamil], the “inhibition of calcium transient signal in cardiomyocytes” value (hiPS-CMs) is listed as “inhibit almost all of the calcium transient signal”.

Reference: publication PMC11213733, “Computational approaches identify a transcriptomic fingerprint of drug-induced structural cardiotoxicity” (Cell Biology and Toxicology, 2024)
